Measurements as given in article PMC10619479, “Multicomponent synthesis of pyrido[2,3-b]pyrazine derivatives: electrochemical DNA sensing, nonlinear optical properties and biological activity” (RSC Advances, 2023).

What was measured:
[1] = molecular target: T1, Jack Bean Urease (Canavalia ensiformis, UniProt P07374); experiment: biochemical; set-up: Jack bean urease inhibition, ammonia release by indophenol method, absorbance at 625 nm
Description: The enzyme responsible for catalyzing urea, known as urease, helps for the conversion of urea into carbon dioxide (CO2) through hydrolysis. To monitor the production of ammonia (NH3) and inhibit urease activity, we employed the indophenol method.[42] In the reaction mixture, consisting of Jack Bean Urease (200 μL), a buffer with a pH of 8.25 (400 μL, composed of 0.5 mM EDTA, 0.02 M K2HPO4, 0.02 M LiCl, and 120 mM urea), and test compounds (100 μL), incubation was carried out at 25 °C for approximately 30 minutes. […] In the realm of scientific investigation, thiourea functions as a benchmark inhibitor. The determination of the IC50 values entails subjecting both standard and synthesized compounds to varying concentrations under identical experimental conditions.[43,44] […] Thiourea was used as a reference point to assess the effects of substituents about the pyrido[2,3-b]pyrazine based scaffold on their urease inhibitory potential.

[2] = molecular target: T1, Jack Bean Urease; experiment: indophenol urease inhibition assay (ammonia release, […] nm); assay type: biochemical
Excerpt: The determination of the IC50 values entails subjecting both standard and synthesized compounds

T1 sequence (P07374 whole entry): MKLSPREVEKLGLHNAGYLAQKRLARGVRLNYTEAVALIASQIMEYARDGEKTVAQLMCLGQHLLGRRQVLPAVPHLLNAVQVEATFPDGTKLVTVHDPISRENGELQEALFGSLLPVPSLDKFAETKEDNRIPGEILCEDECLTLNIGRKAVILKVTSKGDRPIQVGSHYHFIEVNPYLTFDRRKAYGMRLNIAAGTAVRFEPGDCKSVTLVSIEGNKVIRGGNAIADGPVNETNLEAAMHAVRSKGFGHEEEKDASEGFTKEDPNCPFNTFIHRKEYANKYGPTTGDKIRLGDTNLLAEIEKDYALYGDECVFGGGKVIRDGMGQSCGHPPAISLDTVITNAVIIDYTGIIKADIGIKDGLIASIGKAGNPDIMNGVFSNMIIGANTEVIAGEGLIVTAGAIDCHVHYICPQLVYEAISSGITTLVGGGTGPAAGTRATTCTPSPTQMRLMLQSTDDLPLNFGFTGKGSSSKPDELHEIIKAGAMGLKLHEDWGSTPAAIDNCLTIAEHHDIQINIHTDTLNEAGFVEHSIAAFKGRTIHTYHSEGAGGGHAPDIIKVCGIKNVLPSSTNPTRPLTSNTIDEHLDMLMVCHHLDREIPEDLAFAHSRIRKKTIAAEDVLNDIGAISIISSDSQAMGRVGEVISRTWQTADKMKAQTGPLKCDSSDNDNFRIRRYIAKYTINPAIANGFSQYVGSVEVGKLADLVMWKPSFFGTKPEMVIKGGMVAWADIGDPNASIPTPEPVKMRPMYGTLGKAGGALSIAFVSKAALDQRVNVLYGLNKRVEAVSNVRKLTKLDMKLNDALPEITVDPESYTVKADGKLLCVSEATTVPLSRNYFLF

SMILES	IC50 [1] [µM]	IC50 [2] [µM]
O=C1C2=C(Nc3nccnc3C2c2ccc(Cl)cc2)c2ccccc21 (centres unmarked) [compound 5]		4.12 ± 1.18
O=C1C2=C(Nc3nccnc3C2c2ccc([N+](=O)[O-])cc2)c2ccccc21 (centres unmarked) [compound 6]	4.77 ± 0.92	
NC(N)=S [thiourea]	1.94 ± 0.36	

Further lines, with some results ahead:

IC50 [1] [µM]	SMILES	IC50 [2] [µM]
6.79 ± 0.92	O=Cc1ccc(C2C3=C(Nc4nccnc42)c2ccccc2C3=O)cc1 (centres unmarked) [compound 4]	
11.9 ± 0.34	COc1ccc(C2C3=C(Nc4nccnc42)c2ccccc2C3=O)cc1 (centres unmarked) [compound 7]	
